# Columns and labels:
# [1] = tested on: dogs; assay: Action profile (blood glucose) of insulin compositions in dogs; type: in vivo
# Description: D) Action Profile of an Asp^A21 -Human Insulin-Arg^B31 -Arg^B32-OH Composition in dogs by comparison with human insulin-Arg^B31 -Arg^B32 -OH and basal H insulin Hoechst^(R) =an NPH (neutral protamine Hagedorn) composition containing about 10 μg of Zn^2+.
# [2] = pH 4
# [3] = measured by isoelectric focusing; cited from earlier work
Substance,Blood glucose as a % of the initial level ([1]; 1 h) [%],Blood glucose as a % of the initial level ([1]; 2 h) [%],Blood glucose as a % of the initial level ([1]; 3 h) [%],Blood glucose as a % of the initial level ([1]; 5 h) [%],Blood glucose as a % of the initial level ([1]; 7 h) [%],Stability [2],Action profile (basal profile) ([1]; compared with human insulin-Arg^B31 -Arg^B32 -OH),Isoelectric point [3] [pH]
"human insulin-Arg^B31 -Arg^B32 -OH [Human insulin Arg^B31 --Arg^B32 --OH, reference compound]",77,52,64,85,98,–,–,–
Asp^A21 -Human Insulin-Arg^B31 -Arg^B32 -OH,99,62,51,75,98,stable for a long time under the chosen conditions,same advantageous basal profile as human insulin-Arg^B31 -Arg^B32 -OH,–
proinsulin: proinsulin,–,–,–,–,–,–,–,5.4
